Structures can show the parent of a compound that is named as a salt.
Key:
[1] = Storage stability of Example 1 tablets, contamination profile (HPLC peak area); conditions: for result with further compounds having a stabilizing action (in words): used instead of triethyl citrate and simethicone, analogously to the preceding examples
[2] = Storage stability of tablets of Examples 2 to 5, amended HPLC method; type: physicochemical; conditions: tablets of Examples 2 to 5, 50° C., 2 weeks
From the text: Example 1 was repeated, but with the compounds and concentrations stated in Table 2. Triethyl citrate was applied to a mixture of the active compound, lactose and maize starch, the mixture was granulated with an aqueous solution of hydroxypropylcellulose, the granules were worked up with the additives listed in Table 2 to give the finished end mixture and this mixture was pressed to tablets with a rotary tablet press (Fette P1). Tablets with two different pressing pressures, or two different hardnesses (50 N and 80 N) were prepared and were stored in open brown glass containers at 50° C. for at least two weeks. At the same time, the end mixture which had not been subjected to pressure was stored at 4° C. in closed brown glass containers for the same period of time as a reference sample for comparison.
The tablets from Examples […], 3, 4 and 5 were investigated with an amended HPLC method, which led to other retention times. In this, the peaks correspond to the following compounds:
Peak at 1.7-1.8 min=desethyl-candesartan cilexetil Peak at 3.8-3.9 min=candesartan cilexetil Peak at 9.1-9.2 min=N-ethyl-candesartan cilexetil

SMILES | result with further compounds having a stabilizing action (in words) [1] | stabilizing action for candesartan cilexetil tablets during storage (in words) ([1]; Example 1 tablets, 50° C., two weeks) | stabilizing action (in words) [2]
CCCCOC(=O)CCCCCCCCC(=O)OCCCC [dibutyl sebacate] | Analogous results | – | –
CCOC(=O)c1ccccc1C(=O)OCC [diethyl phthalate] | Analogous results | – | –
COC(=O)c1ccccc1C(=O)OC [dimethyl phthalate] | Analogous results | – | –

Results, then the compound that gave them:

result with further compounds having a stabilizing action (in words) [1] | stabilizing action for candesartan cilexetil tablets during storage (in words) ([1]; Example 1 tablets, 50° C., two weeks) | stabilizing action (in words) [2] | SMILES
Analogous results | – | – | CCCCOC(=O)CC(O)(CC(=O)OCCCC)C(=O)OCCCC [tributyl citrate]
– | stabilizing action | stabilizing action | CCOC(=O)CC(O)(CC(=O)OCC)C(=O)OCC [triethyl citrate]
Analogous results | – | – | COC(=O)CC(O)(CC(=O)OC)C(=O)OC [trimethyl citrate]

Reference: patent publication US20090208583A1, “TABLETS COMPRISING CANDESARTAN CILEXETIL” (Siegfried Generics International AG, priority 2006, published 2009)
